As usually defined, the ED50 is the dose at which the effect has come halfway, by size or by number of responders. The low end stands for an effect at a small dose, the high end for a need for a large dose. The MIC is the lowest concentration that inhibits growth of the organism. Lower therefore signals inhibition by little substance. In general, MIC50 refers to the lowest concentration that inhibits either 50% of growth or 50% of the strains tested, depending on the study. As usually defined, the MIC90 is the lowest concentration that inhibits either 90% of growth or 90% of the strains tested, depending on the study. The low end stands for greater potency, the high end for weaker potency.

The record followed here is ChEMBL document CHEMBL1131850, “The synthesis and anti-MRSA activity of amidinium-substituted 2-dibenzofuranylcarbapenems” (1999).

The species named for assay [1] is Mus musculus. The experiment in a line: Effective dose against Staphylococcus aureus MB2985 (methicillin-susceptible) in mouse systemic infection model. Type of assay: functional.
A short description of assay [2]: In vivo inhibitory activity against Staphylococcus aureus MB2985 (methicillin-susceptible) in mouse systemic infection model. The format is functional.
A further assay relates to Staphylococcus aureus. Nature of the assay: Compound was tested in vitro for its activity against methicillin-Resistant Staphylococcus Aureus(MRSA 12). Type of assay: functional.
Assay [3] in a line: Compound was evaluated in vivo for percent binding to human albumin fraction V. Type of assay: functional, organism-based.
A short description of assay [4]: Compound was tested in vitro for its activity against Methicillin-Resistant Coagulase Negative Staphylococci(MRCNS 9). The format is functional. The settings on record: Staphylococcus.
The species named for assay [5] is Mus musculus. The experiment in a line: Plasma MIC against staphylococcus aureus infection in mice in presence of human albumin fraction V (21.5 mg/mL). The format is functional, organism-based.
Assay [6] concerns Mus musculus. Nature of the assay: Compound was evaluated in vivo for plasma MIC in presence of human albumin fraction V (21.5 mg/mL). The format is functional, organism-based.
Assay [7] has as its system Mus musculus. Nature of the assay: Compound was evaluated in vivo for percent binding to human albumin fraction V. The format is functional, organism-based.

Molecules are shown by their SMILES. Values after ≈ are worked out from the molar mass of the structure shown.

`C[C@@H](O)[C@H]1C(=O)N2C(C(=O)O)=C(c3cc(C(=N)N)c4oc5ccccc5c4c3)C[C@H]12`: the ED50 in the assay listed under Mus musculus [1] is less than 0.096 mg/kg. For the same compound, in assay [2], the MIC was determined as 0.031 µg/mL (≈ 0.0765 µM). Also, in the assay with Staphylococcus aureus, the MIC50 turned out to be 1 µg/mL (≈ 2.47 µM) and the MIC90 amounted to 2 µg/mL (≈ 4.93 µM). The compound further gave a PPB in assay [3] of 71%. In assay [4], this compound had an MIC50 of 1 µg/mL (≈ 2.47 µM) and an MIC90 of 2 µg/mL (≈ 4.93 µM). Besides, the Plasma MIC in the assay filed under Mus musculus [5] is 0.031 µg/mL.

In the case of `C[C@@H](O)[C@H]1C(=O)N2C(C(=O)O)=C(c3cc(C(=N)N(C)C)c4oc5ccccc5c4c3)C[C@H]12`, the MIC50 in the assay on Staphylococcus aureus was 2 µg/mL (≈ 4.61 µM); in assay [4], 4 µg/mL (≈ 9.23 µM). Moreover, the MIC90 (against Staphylococcus aureus; in assay [4]) was 8 µg/mL (≈ 18.5 µM) in each case.

As for `C[C@@H](O)[C@H]1C(=O)N2C(C(=O)O)=C(c3ccc4oc5ccccc5c4c3)C[C@H]12`, in the assay on Staphylococcus aureus, the MIC50 came to 2 µg/mL (≈ 5.5 µM) and the MIC90 is 4 µg/mL (≈ 11 µM). Further, in assay [4], the MIC50 amounted to 4 µg/mL (≈ 11 µM) and the MIC90 came out at 8 µg/mL (≈ 22 µM).

Consider `C[C@@H](O)[C@H]1C(=O)N2C(C(=O)O)=C(c3cc(C4=NCCN4)c4oc5ccccc5c4c3)C[C@H]12`, for which the ED50 in the assay listed under Mus musculus [1] came to 0.135 mg/kg. This compound also showed an MIC in assay [2] not above 0.016 µg/mL. Also, the MIC50 (against Staphylococcus aureus; in assay [4]) was 1 µg/mL (≈ 2.32 µM) each time. For the same compound, the MIC90 (against Staphylococcus aureus; in assay [4]) was 1 µg/mL (≈ 2.32 µM) in each case. This compound also returned a PPB in assay [3] of 34%. Besides, the Plasma MIC in the assay listed under Mus musculus [5] is 0.063 µg/mL.

Take `CN[C@H](CC(C)C)C(=O)N[C@H]1C(=O)N[C@@H](CC(N)=O)C(=O)N[C@H]2C(=O)N[C@H]3C(=O)N[C@H](C(=O)N[C@H](C(=O)O)c4cc(O)cc(O)c4-c4cc3ccc4O)[C@H](O)c3ccc(c(Cl)c3)Oc3cc2cc(c3O[C@@H]2O[C@H](CO)[C@@H](O)[C@H](O)[C@H]2O[C@H]2C[C@](C)(N)[C@H](O)[C@H](C)O2)Oc2ccc(cc2Cl)[C@H]1O` [VANCOMYCIN]: in the assay on Staphylococcus aureus, the MIC50 worked out at 1 µg/mL (≈ 0.69 µM) and the MIC90 turned out to be 2 µg/mL (≈ 1.38 µM). In assay [4], the MIC50 was 4 µg/mL (≈ 2.76 µM) and the MIC90 was 8 µg/mL (≈ 5.52 µM).

Consider `C[C@@H](O)[C@H]1C(=O)N2C(C(=O)O)=C(c3cc(C(N)=O)c4oc5ccccc5c4c3)C[C@H]12`, for which the ED50 in the assay listed under Mus musculus [1] worked out at 0.55 mg/kg. This compound showed an MIC in assay [2] of 0.031 µg/mL (≈ 0.0763 µM). For the same compound, in the assay on Staphylococcus aureus, the MIC50 was 0.5 µg/mL (≈ 1.23 µM) and the MIC90 amounted to 1 µg/mL (≈ 2.46 µM). Moreover, the Plasma MIC with Mus musculus [6] turned out to be 1 µg/mL. Also, in assay [3], the PPB is 95%. Further, in assay [4], the MIC50 turned out to be 2 µg/mL (≈ 4.92 µM) and the MIC90 is 2 µg/mL (≈ 4.92 µM).

The compound `C[C@@H](O)[C@H]1C(=O)N2C(C(=O)O)=C(c3cc(C#N)c4oc5ccccc5c4c3)C[C@H]12` yielded an ED50 in the assay listed under Mus musculus [1] of 1.44 mg/kg. The MIC in assay [2] is less than 0.016 µg/mL. Also, in the assay on Staphylococcus aureus, the MIC50 turned out to be 0.5 µg/mL (≈ 1.29 µM) and the MIC90 stood at 1 µg/mL (≈ 2.57 µM). Further, in the assay with Mus musculus [6], the Plasma MIC is more than 32 µg/mL. In assay [4], this compound registered an MIC50 of 1 µg/mL (≈ 2.57 µM) and an MIC90 of 1 µg/mL (≈ 2.57 µM). The compound further showed a PPB in the assay on Mus musculus [7] of 98%.

`C[C@@H](O)[C@H]1C(=O)N2C(C(=O)O)=C(SCCNC=N)C[C@H]12` [IMIPENEM ANHYDROUS] registered a median effective dose (ED50) in the assay listed under Mus musculus [1] of 0.026 mg/kg. Also, in assay [2], the MIC was 0.01 µg/mL (≈ 0.0334 µM). Further, the MIC50 against Staphylococcus aureus is 32 µg/mL (≈ 107 µM); in assay [4], more than 128 µg/mL. The results for the MIC90 (against Staphylococcus aureus; in assay [4]) were 128 µg/mL (≈ 428 µM) and more than 128 µg/mL, respectively. The same compound gave a PPB in assay [3] of less than 5%. The Plasma MIC in the assay filed under Mus musculus [5] amounted to 0.014 µg/mL.

As for `C[C@@H](O)[C@H]1C(=O)N2C(C(=O)O)=C(c3cc(C4=NCCN4C)c4oc5ccccc5c4c3)C[C@H]12`, the MIC50 (with Staphylococcus aureus; in assay [4]) was 2 µg/mL (≈ 4.49 µM) each time. The MIC90 (against Staphylococcus aureus; in assay [4]) was 4 µg/mL (≈ 8.98 µM) throughout.

In the assay with Staphylococcus aureus, `C[C@@H](O)[C@H]1C(=O)N2C(C(=O)O)=C(c3cc(C4=NCCCN4)c4oc5ccccc5c4c3)C[C@H]12` displayed an MIC50 of 1 µg/mL (≈ 2.24 µM) and an MIC90 of 2 µg/mL (≈ 4.49 µM). Besides, in assay [4], the MIC50 came to 2 µg/mL (≈ 4.49 µM) and the MIC90 is 4 µg/mL (≈ 8.98 µM).

Turning to `CNC(=N)c1cc(C2=C(C(=O)O)N3C(=O)[C@H]([C@@H](C)O)[C@H]3C2)cc2c1oc1ccccc12`, in the assay on Staphylococcus aureus, the MIC50 came out at 1 µg/mL (≈ 2.38 µM) and the MIC90 came out at 4 µg/mL (≈ 9.54 µM). In assay [4], this compound registered an MIC50 of 2 µg/mL (≈ 4.77 µM) and an MIC90 of 2 µg/mL (≈ 4.77 µM).

Consider `C[C@@H](O)[C@H]1C(=O)N2C(C(=O)[O-])=C(c3cc(C4=[N+](C)CCN4C)c4oc5ccccc5c4c3)C[C@H]12`, for which the MIC50 came out at 8 µg/mL (≈ 17.4 µM) against Staphylococcus aureus and 16 µg/mL (≈ 34.8 µM) in assay [4]. Further, the MIC90 (in the assay on Staphylococcus aureus; in assay [4]) was 32 µg/mL (≈ 69.6 µM) throughout.

As for `C[C@@H](O)[C@H]1C(=O)N2C(C(=O)[O-])=C(c3cc(-c4n(C)cc[n+]4C)c4oc5ccccc5c4c3)C[C@H]12`, the values for the MIC50 (against Staphylococcus aureus; in assay [4]) were 4 µg/mL (≈ 8.74 µM) and 8 µg/mL (≈ 17.5 µM), respectively. In addition, the MIC90 was determined as 8 µg/mL (≈ 17.5 µM) in the assay on Staphylococcus aureus and 16 µg/mL (≈ 35 µM) in assay [4].
